What was measured:
[1] = type: physicochemical
Description: As such, rimiducid is categorized as a biopharmaceutical classification system (BCS) class IV drug. Although there are exceptions, BCS class IV compounds generally are viewed as poor candidates for oral delivery (Markovic et al., Pharmaceutics 2020, 12(12), 1175. doi.org/10.3390/pharmaceutics12121175). For a compound to be absorbed, it must first be in solution. […] Once solubilized, rimiducid must cross the plasma membranes of the intestinal tract to be absorbed. […] Because of the molecular weight of 1411.6 Da, passive absorption of rimiducid through the intestinal aqueous porin channels is unlikely (Dahlgren et al., Pharmaceutics. 2019; 11(8):411. Published 2019 Aug. 13. doi:10.3390/pharmaceutics11080411).

[2] = class IV characterisation, aqueous solubility; cited from earlier work
[3] = Drug Bank Online; cited from earlier work

## CC[C@H](C(=O)N1CCCC[C@H]1C(=O)O[C@H](CCc1ccc(OC)c(OC)c1)c1cccc(OCC(=O)NCCNC(=O)COc2cccc([C@@H](CCc3ccc(OC)c(OC)c3)OC(=O)[C@@H]3CCCCN3C(=O)[C@@H](CC)c3cc(OC)c(OC)c(OC)c3)c2)c1)c1cc(OC)c(OC)c(OC)c1 [Rimiducid, rimiducid]
[1]
  theoretical maximal solubility of rimiducid within the upper GI tract: less than 250 μg
[2]
  volume required to dissolve an effective dose: greater than 250 milliliters
[3]
  water solubility: less than 0.5 μg/mL
